Laboratory results reported in patent US11744246B2, “Preparation of mammalian oocyte for fertilization via a soluble human PH20 hyaluronidase polypeptide” (SYNGENTA PARTICIPATIONS AG, priority 2017, dated 2023).

Legend:
Format in all cases: cell-based
Fusarium culmorum = assay: microbe, parasite or virus in culture; settings: 72 h, read-out: control of Fusarium culmorum
[1] = tested on: Botryotinia fuckeliana (Botrytis cinerea); assay: Botryotinia fuckeliana (Botrytis cinerea)/Liquid Culture (Gray Mould); settings: 72 h, liquid culture, growth inhibition photometrically 3-4 days after application, compared to untreated control
[2] = tested on: Glomerella lagenarium (Colletotrichum lagenarium); assay: Glomerella Lagenarium (Colletotrichum Lagenarium)/Liquid Culture (Anthracnose); settings: Colletotrichum orbiculare, liquid culture, growth inhibition photometrically 3-4 days after application, compared to untreated control
[3] = tested on: Magnaporthe grisea (Pyricularia oryzae); assay: microbe, parasite or virus in culture; settings: read-out: control of Magnaporthe grisea
[4] = tested on: Monographella nivalis (Microdochium nivale); assay: Monographella nivalis (Microdochium nivale)/Liquid Culture (Foot Rot Cereals); settings: 96 h, liquid culture, growth inhibition photometrically 4-5 days after application, compared to untreated control

Measured: inhibition of growth at 20 ppm

CC(COC1CCC1)(CC(F)(F)F)C(=O)Nc1cnc2c(F)cccc2c1 (stereo not shown) [E.07, 2-(cyclobutoxymethyl)-4,4,4-trifluoro-N-(8-fluoro-3-quinolyl)-2-methyl-butanamide]
≥ 80%: all assays above

CC(C)(C)COCC(C)(CC(F)(F)F)C(=O)Nc1cnc2c(F)cccc2c1 (stereo not shown) [E.04, 2-(2,2-dimethylpropoxymethyl)-4,4,4-trifluoro-N-(8-fluoro-3-quinolyl)-2-methyl-butanamide]
≥ 80%: all assays above

CC(COC1CCCCC1)(CC(F)(F)F)C(=O)Nc1cnc2c(F)cccc2c1 (stereo not shown) [E.08, 2-(cyclohexoxymethyl)-4,4,4-trifluoro-N-(8-fluoro-3-quinolyl)-2-methyl-butanamide]
≥ 80%: all assays above

CC(COc1cccc(F)c1)(CC(F)(F)F)C(=O)Nc1cnc2c(F)cccc2c1 (stereo not shown) [E.02, 4,4,4-trifluoro-2-[(3-fluorophenoxy)methyl]-N-(8-fluoro-3-quinolyl)-2-methyl-butanamide]
≥ 80%: all assays above

CC(COc1ccc(F)cc1)(CC(F)(F)F)C(=O)Nc1cnc2c(F)cccc2c1 (stereo not shown) [E.03, 4,4,4-trifluoro-2-[(4-fluorophenoxy)methyl]-N-(8-fluoro-3-quinolyl)-2-methyl-butanamide]
≥ 80%: all assays above

CC(COc1ccc(Cl)cc1)(CC(F)(F)F)C(=O)Nc1cnc2c(F)cccc2c1 (stereo not shown) [E.05, 2-[(4-chlorophenoxy)methyl]-4,4,4-trifluoro-N-(8-fluoro-3-quinolyl)-2-methyl-butanamide]
≥ 80%: all assays above

CC1(OCC(C)(CC(F)(F)F)C(=O)Nc2cnc3c(F)cccc3c2)CCCC1 (stereo not shown) [E.06, 4,4,4-trifluoro-N-(8-fluoro-3-quinolyl)-2-methyl-2-[(1-methylcyclopentoxy)meth-yl]butanamide]
≥ 80%: all assays above

CC(COc1ccccc1F)(CC(F)(F)F)C(=O)Nc1cnc2c(F)cccc2c1 (stereo not shown) [E.01, 4,4,4-trifluoro-2-[(2-fluorophenoxy)methyl]-N-(8-fluoro-3-quinolyl)-2-methyl-butanamide]
≥ 80%: all assays above
